Reference: patent US8097629B2, “Dihydropyridinone derivatives” (Bayer Pharma Aktiengesellschaft, priority 2004, dated 2012)

Assays:
[1] = molecular target: T1, human neutrophil elastase (HNE) (Homo sapiens, UniProt P08246); assay: In vitro inhibition of HNE using a fluorogenic peptide substrate; assay type: biochemical; conditions: substrate MeOSuc-Ala-Ala-Pro-Val-AMC, 384 MTP format
T1 construct: purchased SERVA Electrophoresis GmbH, Heidelberg, Germany #20927.01
T1 sequence (P08246 30-267): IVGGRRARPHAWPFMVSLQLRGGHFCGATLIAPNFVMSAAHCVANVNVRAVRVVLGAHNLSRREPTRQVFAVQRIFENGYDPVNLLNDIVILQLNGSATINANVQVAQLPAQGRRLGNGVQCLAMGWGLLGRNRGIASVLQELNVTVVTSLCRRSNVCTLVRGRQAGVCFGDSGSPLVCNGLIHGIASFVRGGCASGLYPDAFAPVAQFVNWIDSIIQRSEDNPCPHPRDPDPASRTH
Description: I. In vitro Enzyme Assays of Human Neutrophil Elastase (HNE)
assay buffer: 0.1 M HEPES-NaOH buffer pH 7.4, 0.5 M NaCl, 0.1% (w/v) bovine serum albumin;
suitable concentration (see below) of HNE (18 U/mg lyophil., #20927.01, SERVA Electrophoresis GmbH, Heidelberg, Germany) in assay buffer;
suitable concentration (see below) of substrate in assay buffer;
suitable concentration of test compounds diluted with assay buffer from a 10 mM stock solution in DMSO.
In vitro Inhibition of HNE Using a Fluorogenic Peptide Substrate (Continuous Read-out Signal, 384 MTP Assay Format):
In this protocol, the elastase substrate MeOSuc-Ala-Ala-Pro-Val-AMC (#324740, Calbiochem-Novabiochem Corporation, Merck KGaA, Darmstadt, Germany) is used. The test solution is prepared by mixing 10 μl of test compound dilution, 20 μl of HNE enzyme dilution (final concentration 8-0.4 μU/ml, routinely 2.1 μU/ml) and 20 μl of substrate dilution (final concentration 1 mM-1 μM, routinely 20 μM), respectively. The solution is incubated for 0-2 hrs at 37° C. (routinely one hour). The fluorescence of the liberated AMC due to the enzymatic reaction is measured at 37° C. (TECAN spectra fluor plus plate reader). The rate of increase of the fluorescence (ex. 395 nm, em. 460 nm) is proportional to elastase activity. IC50 values are determined by RFU-versus-[I] plots. Km and Km(app.) values are determined by Lineweaver-Burk plots and converted to Ki values by Dixon plots.

[2] = tested on: human polymorphonuclear cells (PMNs); assay: In vitro PMN elastolysis assay; assay type: cell-based; conditions: mean±s.e.m.
Description: In vitro PMN Elastolysis Assay:
This assay is used to determine the elastolytic potential of human polymorphonuclear cells (PMNs) and assess the proportion of degradation due to neutrophil elastase [cf. Z. W. She et al., Am. J Respir. Cell. Mol. Biol. 9, 386-392 (1993)].
Tritiated elastin, in suspension, is coated on to a 96 well plate at 10 μg per well. Test and reference [ZD-0892 (J. Med. Chem. 40, 1876-1885, 3173-3181 (1997), WO 95/21855) and α1 protease inhibitor (α1PI)] compounds are added to the wells at the appropriate concentrations. Human PMNs are separated from peripheral venous blood of healthy donors and resuspended in culture media. The neutrophils are added to the coated wells at concentrations ranging between 1×10^6 to 1×10^5 cells per well. Porcine pancreatic elastase (1.3 μM) is used as a positive control for the assay, and α1PI (1.2 μM) is used as the positive inhibitor of neutrophil elastase. The cellular, control is PMNs without compound at each appropriate cell density. The cells plus compounds are incubated in a humidified incubator at 37° C. for 4 hours. The plates are centrifuged to allow the harvest of cell supernatant only. The supernatant is transferred in 75 μl volumes to corresponding wells of a 96 well Lumaplate™ (solid scintillant containing plates). The plates are dried until no liquid is visible in the wells and read in a beta counter for 3 minutes per well. […]

Compound: COc1ccc(CN(C)C(=O)C2C(=O)N(c3cccc(C(F)(F)F)c3)C(C)=C(C(C)=O)C2c2ccc(C#N)cc2)cc1 (centres unmarked) [Example 19]
- IC50 [1]: 40 nM

Compound: CC(=O)C1=C(C)N(c2cccc(C(F)(F)F)c2)C(=O)C(C(=O)N(C)c2cccc(C)c2)C1c1ccc(C#N)cc1 (centres unmarked) [Example 27]
- IC50 [1]: 30 nM

Compound: CC(=O)C1=C(C)N(c2cccc(C(F)(F)F)c2)C(=O)C(C(=O)N2CCN3CCCC3C2)C1c1ccc(C#N)cc1 (centres unmarked) [Example 34]
- IC50 [1]: 60 nM

Compound: CC(=O)C1=C(C)N(c2cccc(C(F)(F)F)c2)C(=O)C(C(=O)N2CCN(CCN3CCOCC3)CC2)C1c1ccc(C#N)cc1 (centres unmarked) [Example 45]
- IC50 [1]: 70 nM

Compound: CCOC(=O)N1CCN(C(=O)C2C(=O)N(c3cccc(C(F)(F)F)c3)C(C)=C(C(C)=O)C2c2ccc(C#N)cc2)CC1 (centres unmarked) [Example 54]
- IC50 [1]: 60 nM

Compound: COCCOCCCNC(=O)C1C(=O)N(c2cccc(C(F)(F)F)c2)C(C)=C(C(C)=O)C1c1ccc(C#N)cc1 (centres unmarked) [Example 61]
- IC50 [1]: 50 nM

Compound: COc1ccc(C(=O)N[C@H](C(=O)N2CCC[C@H]2C(=O)N[C@H](C(=O)C(F)(F)F)C(C)C)C(C)C)cc1 [ZD-0892]
- IC50 ([2]; n=2 different donors at 3.6×10^5 cells per well): 45.5 ± 7.75 nM

Compound: α1PI: α1 protease inhibitor, used as the positive inhibitor of neutrophil elastase
- inhibition of 3H-elastin elastolysis ([2]; at 1.2 μM, n=3 different donors at 3.6×10^5 cells per well): 83.46±3.97%
